Reference: ChEMBL document CHEMBL1201862, “PubChem BioAssay data set” (2004)
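Five compound concentrations were applied to cells in 96-well plates for 48 hours; endpoints were derived by simple linear interpolation of the resulting dose-response curve. Here, GI50 denotes the concentration required for 50% inhibition of growth.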 Active and inactive are the calls of the source. Cut-off read from the data, not from the text of the source: active = GI50 up to about 1.1 µM and inactive = higher.

Columns and labels:
Experiment in all cases: NCI tumour cell line growth inhibition, 48 h
M14 = tested on: M14
SK-MEL-2 = tested on: SK-MEL-2
SNB-19 = tested on: SNB-19
NCI-H460 = tested on: NCI-H460
SR = tested on: SR
PC-3 = tested on: PC-3
U-251 = tested on: U-251
ACHN = tested on: ACHN
DU-145 = tested on: DU-145
SNB-75 = tested on: SNB-75
NCI-H522 = tested on: NCI-H522
SN12C = tested on: SN12C
HOP-92 = tested on: HOP-92
MDA-MB-231 = tested on: MDA-MB-231
CCRF-CEM = tested on: CCRF-CEM
K562 = tested on: K562
COLO 205 = tested on: COLO 205
LOX IMVI = tested on: LOX IMVI
SK-MEL-5 = tested on: SK-MEL-5
MDA-MB-435 = tested on: MDA-MB-435

Row | SMILES | GI50 (M14) | GI50 (SK-MEL-2) | GI50 (SNB-19) | GI50 (NCI-H460) | GI50 (SR) | GI50 (PC-3) | GI50 (U-251) | GI50 (ACHN) | GI50 (DU-145) | GI50 (SNB-75) | GI50 (NCI-H522) | GI50 (SN12C) | GI50 (HOP-92) | GI50 (MDA-MB-231) | GI50 (CCRF-CEM) | GI50 (K562) | GI50 (COLO 205) | GI50 (LOX IMVI) | GI50 (SK-MEL-5) | GI50 (MDA-MB-435)
1 | C[Si](C)(C)CNC(=O)OCc1ccccc1 | > 100 µM (inactive) | > 100 µM (inactive) | > 100 µM (inactive) | > 100 µM (inactive) | 30.6 µM (inactive) | > 100 µM (inactive) | > 100 µM (inactive) | > 100 µM (inactive) | > 100 µM (inactive) | 90.4 µM (inactive) | 83.2 µM (inactive) | > 100 µM (inactive) | 22.1 µM (inactive) | > 100 µM (inactive) | > 100 µM (inactive) | 48.9 µM (inactive) | > 100 µM (inactive) | > 100 µM (inactive) | 57.7 µM (inactive) | > 100 µM (inactive)
2 | Fc1ccc2nc3n(c2c1)C(c1c(F)cccc1F)SC3 (stereo unspecified) | 49.1 µM (inactive) | 96.8 µM (inactive) | > 100 µM (inactive) | 44 µM (inactive) | 18.4 µM (inactive) | 40.7 µM (inactive) | 76.4 µM (inactive) | 67.9 µM (inactive) | > 100 µM (inactive) | 31.6 µM (inactive) | 28.1 µM (inactive) | 77.4 µM (inactive) | 46 µM (inactive) | 72.6 µM (inactive) | – | – | 45.2 µM (inactive) | 50.7 µM (inactive) | 26.7 µM (inactive) | 40.5 µM (inactive)
3 | C=C(C(=O)OC)N1C(=O)CC(C)C1=O (stereo unspecified) | 13.7 µM (inactive) | 16.9 µM (inactive) | 21.4 µM (inactive) | 18.1 µM (inactive) | 2.59 µM (inactive) | 16.1 µM (inactive) | 17.4 µM (inactive) | 2.83 µM (inactive) | 15.8 µM (inactive) | 17 µM (inactive) | 1.9 µM (inactive) | 16.1 µM (inactive) | 1.95 µM (inactive) | 17.6 µM (inactive) | 1.7 µM (inactive) | 2.87 µM (inactive) | 4.2 µM (inactive) | 7.14 µM (inactive) | 16.9 µM (inactive) | 16.9 µM (inactive)
4 | Clc1cccc(Cl)c1C1ON=C(c2ccccc2)N1C12CC3CC(CC(C3)C1)C2 (stereo unspecified) | 22.3 µM (inactive) | 12.1 µM (inactive) | 67.5 µM (inactive) | 13.7 µM (inactive) | 5.35 µM (inactive) | 4.11 µM (inactive) | 62.5 µM (inactive) | 11.2 µM (inactive) | 76.9 µM (inactive) | 0.387 µM (active) | 32.2 µM (inactive) | 41.6 µM (inactive) | 13.3 µM (inactive) | 10.1 µM (inactive) | 10.4 µM (inactive) | 6.7 µM (inactive) | 11.9 µM (inactive) | 7.26 µM (inactive) | 4.57 µM (inactive) | 17.9 µM (inactive)
5 | CCCCCCCCCCCCCCCCOP(=O)(O)OCC(NC(C)=O)C(=O)O (stereo unspecified) | > 100 µM (inactive) | > 100 µM (inactive) | 18.7 µM (inactive) | 39.1 µM (inactive) | 73.8 µM (inactive) | 18 µM (inactive) | 20 µM (inactive) | > 100 µM (inactive) | > 100 µM (inactive) | 20 µM (inactive) | 5.64 µM (inactive) | 42.6 µM (inactive) | 55.3 µM (inactive) | 22.9 µM (inactive) | – | > 100 µM (inactive) | > 100 µM (inactive) | > 100 µM (inactive) | > 100 µM (inactive) | 35.4 µM (inactive)
6 | CC[C@@]1(O)C(=O)OCc2c1cc1n(c2=O)Cc2c-1nc1ccccc1c2/C=N\NC(=O)C(N)CCSC (stereo partly specified) | < 0.0121 µM (active) | 0.713 µM (active) | < 0.01 µM (active) | < 0.01 µM (active) | < 0.01 µM (active) | 0.13 µM (active) | < 0.01 µM (active) | < 0.01 µM (active) | 0.0175 µM (active) | < 0.01 µM (active) | < 0.032 µM (active) | < 0.01 µM (active) | 0.0863 µM (active) | 1.24 µM (inactive) | < 0.01 µM (active) | 0.0109 µM (active) | 1.24 µM (inactive) | < 0.01 µM (active) | 0.0149 µM (active) | 0.108 µM (active)
7 | COC1CC(OC2C(C)OC(OC3C(C)OC(OC4C(C)OC(O[C@H]5CC[C@@]6(C)C(=CC[C@]7(O)[C@@H]6C[C@@H](OC(=O)/C=C/c6ccccc6)[C@@]6(C)[C@]7(O)CC[C@@]6(O)C(C)=O)C5)CC4OC)CC3OC)CC2OC)OC(C)C1O (stereo partly specified) | > 12.5 µM (inactive) | > 12.5 µM (inactive) | > 12.5 µM (inactive) | – | > 12.5 µM (inactive) | > 12.5 µM (inactive) | > 12.5 µM (inactive) | > 12.5 µM (inactive) | > 12.5 µM (inactive) | > 12.5 µM (inactive) | > 12.5 µM (inactive) | > 12.5 µM (inactive) | > 12.5 µM (inactive) | > 12.5 µM (inactive) | > 12.5 µM (inactive) | > 12.5 µM (inactive) | > 12.5 µM (inactive) | > 12.5 µM (inactive) | 11.4 µM (inactive) | > 12.5 µM (inactive)
